In PMC8703450, “New Heterocyclic Combretastatin A-4 Analogs: Synthesis and Biological Activity of Styryl-2(3H)-benzothiazolones” (Pharmaceuticals, 2021):
Read-outs that look alike come from different tables or passages of the source.

Assays:
EA.hy926 cells [1] = test: In vitro cell migration (wound-healing) assay; assay type: cell-based, human; conditions: 24 h
Description: A total of 3 × 10^5 EA.hy926 cells were seeded in a 12-well plate and grown close to the confluence. The cell monolayer was gently scraped with a P200 pipette tip, creating a wound area around 1-mm wide. Cells were washed twice with fresh medium and treated with test compounds diluted in growth media to the corresponding sub-toxic concentrations. Images were acquired at 0 and 24 h following treatment. After incubation for 24 h, the scratch wound width was measured and recorded, and then compared with the initial scratch wound width at 0 h. Using the ImageJ image processing program (ImageJ150-WIN-Java8), the size of the denuded area in pixels was determined at each time point from the digital images.

MDA-MB-231 cells = test: MTT cytotoxicity assay, MDA-MB-231; assay type: cell-based, human
Description: (§1) All tested compounds were dissolved in DMSO at 25 mM initial concentration and diluted with medium to obtain the working concentrations (0.01 nM–250 µM). Serial drug dilutions were prepared in medium immediately before each experiment. The DMSO working concentration in the medium was […]. For the MTT assay, cells were seeded into 96-well microtitre plates at a density of 1 × 10^4 in 100 µL complete medium per well. They were further incubated for 24 h, followed by treatment with CA-4 analogs up to 72 h. Cell viability was determined using the MTT assay. Ten µL of MTT solution (5 mg/mL) was added to each well and further incubated for 3 h at 37 °C. To dissolve the formazan product, 100 µL/well of 99.5% isopropanol was added. Cell viability was determined by measuring absorbance at 550/630 nm using a DTX880 plate reader (Beckman Coulter, USA). Results, expressed as concentrations that inhibit 20% (IC20), 50% (IC50), and 80% (IC80) of cell growth, were calculated using GraphPad Prism 8.0.1.
(§2) Table S 3.1. Description of eukaryotic cell lines used for MTT assay. […]
(§3) Kindly provided 3.1 g/L Glucose,
(§4) mammary by Prof. Iana DMEM/F12 with
(§5) Breast MDA- gland/breast; derived Tsoneva 10% FBS, 100 U/mL
(§6) MB-231 h from metastatic site: (IBPhBME – penicillin, 100 U/mL
(§7) pleural effusion; BAS) streptomycin (Lonza). […]

[2] = system: rhodamine-labeled α,β-tubulin; test: Ex vivo rhodamine-tubulin polymerization (fluorescence microscopy); conditions: 20 μM, 37 °C, 45 min
Description: TAMRA-Tubulin (TL590M, Cytoskeleton) diluted in GTB buffer (PEM, 10% glycerol, 1 mM GTP) was mixed with unlabeled α,β-tubulin (T240, Cytoskeleton) at a ratio of 1:3 (v/v) to a concentration of 4.0 mg/mL. […] Samples were then centrifuged for 20 min at 30,000× g. The pellets were diluted in 6 µL PEM buffer, containing 1 mM GTP and 0.5% glutaraldehyde, mixed with anti-fade mounting media (P36934, Invitrogen, Eugene, USA), and examined under a confocal LSM 980 Airyscan microscope (Carl Zeiss AG, Oberkochen, Germany).

MCF-7 cells = test: MTT cytotoxicity assay, MCF-7; assay type: cell-based, human
Description: as §1, §2, §3, §4, §5, §6, §7

EA.hy926 cells [3] = test: Clonogenic survival assay; assay type: cell-based, human; conditions: 72 h treatment + 6 days recovery
Description: EA.hy926 cells were seeded at 300 cells/well on a 6-well plate and incubated for 24 h. The cells were treated with different concentrations of test compounds for 72 h. After six additional days of growth in a fresh medium to form visible colonies, cells were washed with phosphate-buffered saline (PBS, pH 7.4) and stained with crystal violet (0.5%, w/v) in 6% glutaraldehyde. After 30 min of incubation, the plates were washed with tap water, dried, photographed, and analyzed using ImageJ [79]. Raw data were normalized to the corresponding DMSO control for each independent experiment. After normalization, statistically significant differences for colony-forming efficiency (CFE) values versus […] were calculated.

EA.hy926 cells [4] = test: Matrigel tube disruption assay; assay type: cell-based, human; conditions: EA.hy926 on Matrigel, 24 h of treatment
Description: The tube formation assay was performed in 96-well plates coated with 40 µL BD Matrigel™ (basement membrane matrix), following the manufacturer’s instruction (BD Biosciences). A total of 2 × 10^4 EA.hy926 cells was re-suspended in growth medium and added to each well in a final volume of 100 µL. Tube formation was visualized directly using a light microscope. Images were captured using a phase-contrast microscope and quantitation was performed using the WimTube application of the Wimasis online image analysis platform (https://www.wimasis.com/en/products/13/WimTube; accessed on 1 June 2021).

caspase 3, 8 and 9 = test: Western blot analysis of caspase activation; assay type: cell-based, human; conditions: EA.hy926, 24 h
Description: A total of 7 × 10^5 cells was seeded in 100-mm dishes. On the next day, cells were treated with the corresponding concentrations of CA-4 and 26Z. After 24 h, treated cells were collected and lysed with lysis buffer (50 mM HEPES, pH 7.7, 250 mM KCl, 10% glycerol, 0.1% Nonidet P-40) containing protease inhibitors (0.4 mM sodium vanadate, 0.5 mM PMSF, 1 mM DTT, […]) by incubation on ice for 30 min and overnight at −20 °C [80]. The concentration of obtained total cell protein lysates was determined by the method of Bradford. Samples were separated on 12% polyacrylamide gels and transferred to nitrocellulose or PVDF membranes. Immunoblotting was performed by blocking in 3.5% non-fat dried milk in PBS, with subsequent incubation for 1 h with primary antibodies for caspase 3 (sc-56053, Santa Cruz Biotechnology), caspase 8 (sc-81656, Santa Cruz Biotechnology), caspase 9 (sc-8355, Santa Cruz Biotechnology), and PARP-1 (sc-8007, Santa Cruz Biotechnology), diluted in PBS containing 0.05% Tween-20. This was followed by incubation with a peroxidase-conjugated secondary antibody m-Igk BP-HRP (sc-516102, Santa Cruz Biotechnology) or a donkey anti-rabbit IgG-HRP (sc-2313, Santa Cruz Biotechnology) for 1 h, and detection of the chemiluminescent signal was accomplished with ECL Select^TM Western Blotting Detection Reagent (Amersham) on X-ray film. β–actin was used as a loading control and mouse monoclonal antibody was used following the manufacturer’s instruction (sc-47778, Santa Cruz Biotechnology).

HT-29 cells = test: MTT cytotoxicity assay, HT-29; assay type: cell-based, human; conditions: for IC50: Homo sapiens
Description: as §1, §2
HT-29 h colon, colorectal Radostina adenocarcinoma Alexandrova 3.1 g/L D-Glucose […]
colon, colon Kindly provided U/mL streptomycin

[5] = MTT cytotoxicity assay, BEAS-2B control cells; assay type: cell-based; conditions: human, read-out: Cytostatic activity (% viable cells)
Description: as §1
Table S 3.1. Description of eukaryotic cell lines used for MTT assay.
Panel Cell line Origin Tissue, characteristics Source Culture conditions
(h) lung carcinoma ATCC, CCL-185 U/mL penicillin, 100
lung, bronchus; insulin, rhEGF, GA-
BEAS-2B h epithelial virus ATCC, CRL- 1000, BPE,

COc1ccc(/C=C\c2cc(OC)c(OC)c(OC)c2)cc1O [CA-4, Combretastatin A-4]
remaining mean wound opened area (EA.hy926 cells [1]; EA.hy926, 1 nM): 24.4%
Cytostatic activity (% viable cells) (MDA-MB-231 cells; MDA-MB-231 cells, 72 h, MTT): 55%
fluorescent microtubule fiber formation [2]: blocked the process of fiber formation
Cytostatic activity (% viable cells) (MCF-7 cells; MCF-7 cells, 72 h, MTT, in the concentration range studied): 40%
inhibition at 0.001 µM (EA.hy926 cells [3]; Homo sapiens, EA.hy 926, EA.hy926, 1 nM, read-out: inhibition of endothelial cell colony formation): 80%
decrease of branching points (EA.hy926 cells [4]; equitoxic IC50 concentration): 50%
reduction of loop numbers (EA.hy926 cells [4]; equitoxic IC50 concentration): 56 ± 3%
active forms of effector caspase 3 (caspase 3, 8 and 9; CA-4 IC50 and 26Z IC20): to a lesser extent
IC50 (HT-29 cells; HT-29 cells, 72 h, MTT, read-out: IC50): 2160 ± 230 nM
viability at 72 h ([5]; BEAS-2B cells): 80%

COc1cc(/C=C\c2ccc3c(c2)sc(=O)n3C)cc(OC)c1OC [Compound 26Z, (Z)-3-methyl-6-(3,4,5-trimethoxystyryl)-2(3H)-benzothiazolone]
remaining mean wound opened area (EA.hy926 cells [1]; EA.hy926, 50 nM): 49%
IC50 (MDA-MB-231 cells; Homo sapiens, MDA-MB-231, 72 h): 1350 ± 420 nM
fluorescent microtubule fiber formation [2]: blocked the process of fiber formation
IC50 (MCF-7 cells; Homo sapiens, MCF7, 72 h): 2420 ± 480 nM
decrease in colony number (EA.hy926 cells [3]; EA.hy926, 250 nM): 90%
reduction in colony formation (EA.hy926 cells [3]; EA.hy926, 2.5, 10 and 25 µM): about 100%
reduction in cumulative tube length (EA.hy926 cells [4]; IC50 concentration, compared with time 0): ~ 70%
decrease of branching points (EA.hy926 cells [4]; equitoxic IC50 concentration): 63%
activation of caspases 8 and 9 (caspase 3, 8 and 9): activated
active forms of effector caspase 3 (caspase 3, 8 and 9; 26Z at IC50 and IC80): detected
active forms of effector caspase 3 (caspase 3, 8 and 9; CA-4 IC50 and 26Z IC20): to a lesser extent
greater cytotoxic effect compared to CA-4 (HT-29 cells; HT-29 cells, 72 h): more than 250 times
IC50 (HT-29 cells; HT-29, 72 h): 8 ± 1 nM
viability at 72 h [5]: 80%
